Assay results: patent US10703764B2, “Benzopiperazine compositions as BET bromodomain inhibitors” (FORMA Therapeutics, Inc., priority 2013, dated 2020)

Experiments:
BRD4 BD1 = target: T1, BRD4 BD1 (Homo sapiens, UniProt O60885); test: AlphaScreen binding assay, BRD4 Bromodomain 1
T1 construct: made in house
How it was run: (§1)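 An AlphaScreen competition format was used with His-BRD4 BD1 or BD2 and biotin-H4 K5/8/12/16-acetyl peptide, each at matched final levels of 50 nM (BD1) or 100 nM (BD2). Incubation in HEPES/NaCl buffer with 0.1% BSA and 0.01% Triton X-100 ran ≥1 h before IC50 determination.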

BRD4 BD2 = target: T2, BRD4 BD2 (Homo sapiens, UniProt O60885); test: AlphaScreen binding assay, BRD4 Bromodomain 2
T2 construct: made in house
How it was run: as §1

MV4-11 cells = test: Oncology cell growth assay (3-day proliferation, CellTiter-Glo); type: cell-based; details: Homo sapiens, MV4-11, 72 h, AML cell line MV4-11, 72 hours, compounds grouped by IC50 range, read-out: MV4-11 IC50 (inhibition of proliferation, gIC50)
How it was run: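 A 3-day proliferation test used MV4-11 cells seeded at 3000 per well with eight compound concentrations (10 μM top, 3-fold dilution) at 37° C in 5% CO2. CellTiter-Glo luminescence defined viable cell signal. A four-parameter logistic curve against DMSO and background wells gave the gIC50.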

SMILES | IC50 (BRD4 BD1) [nM] | IC50 (BRD4 BD2) [nM] | IC50 (MV4-11 cells) [nM]
CC(=O)N1c2ccc(-c3cnn(C4CCNCC4)c3)cc2N(C(=O)C2CC2)C[C@@H]1C [Example I-359] | 1000 to 10000 | < 50 | 100 to 500
CCC(=O)N1c2ccc(-c3ccc(S(C)(=O)=O)cc3)cc2N(C(=O)c2ccco2)C[C@@H]1C [Example I-365] | 1000 to 10000 | < 50 | > 500
CC(=O)N1c2ccc(-c3ccc4nccn4c3)cc2N(C(=O)c2ccco2)C[C@@H]1C [Example I-382] | 1000 to 10000 | > 500 | 100 to 500
CC(=O)N1c2ccc(-c3cn(C)cn3)cc2N(C(=O)c2ccco2)C[C@@H]1C [Example I-401] | 1000 to 10000 | < 50 | 100 to 500
CC(=O)N1c2ccc(-c3ccc(S(C)(=O)=O)cn3)cc2N(C(=O)c2ccco2)C[C@@H]1C [Example I-407] | 1000 to 10000 | < 50 | > 500
CC(=O)N1c2ccc(-c3ccc(-c4ncco4)cc3)cc2N(C(=O)c2ccco2)C[C@@H]1C [Example I-412] | 1000 to 10000 | < 50 | 100 to 500
CC(=O)N1c2ccc(-c3cnc(N)cn3)cc2N(C(=O)c2ccco2)C[C@@H]1C [Example I-413] | 1000 to 10000 | < 50 | 100 to 500
COC(=O)Nc1ccc(-c2ccc3c(c2)N(C(=O)c2ccco2)C[C@H](C)N3C(C)=O)cc1 [Example I-414] | 1000 to 10000 | < 50 | 100 to 500
CC(=O)N1c2ccc(-c3cn(C)nn3)cc2N(C(=O)c2ccco2)C[C@@H]1C [Example I-420] | 1000 to 10000 | 50 to 500 | > 500
CC(=O)N1c2ccc(-c3ccc(S(=O)(=O)CCO)cc3)cc2N(C(=O)c2ccco2)C[C@@H]1C [Example I-423] | 1000 to 10000 | 50 to 500 | 100 to 500
CC(=O)N1c2ccc(-c3ccc(C(=O)NCCN)cc3)cc2N(C(=O)c2ccco2)C[C@@H]1C [Example I-426] | 1000 to 10000 | < 50 | 100 to 500
CC(=O)N1c2ccc(-c3nnc(N)s3)cc2N(C(=O)c2ccco2)C[C@@H]1C [Example I-430] | 1000 to 10000 | 50 to 500 | 100 to 500
C[C@H]1CN(C(=O)C2CC2)c2cc(-c3ccc(N4CCS(=O)(=O)CC4)cc3)ccc2N1C(=O)C1CC1 [Example I-436] | 100 to 1000 | 50 to 500 | 100 to 500
CC(=O)N1c2ccc(-c3ccc(C(=O)N4CCNCC4)cc3)cc2N(C(=O)C2CC2)C[C@@H]1C [Example I-437] | 100 to 1000 | 50 to 500 | 100 to 500
C[C@H]1CN(C(=O)C2CC2)c2cc(-c3ccc(C(=O)N4CCNCC4)cc3)ccc2N1C(=O)C1CC1 [Example I-438] | 100 to 1000 | 50 to 500 | 100 to 500
CC(=O)N1c2ccc(-c3ccc(N4CCCS4(=O)=O)cc3)cc2N(C(=O)C2CC2)C[C@@H]1C [Example I-439] | 100 to 1000 | 50 to 500 | 100 to 500

SMILES | IC50 (BRD4 BD1) [nM] | IC50 (BRD4 BD2) [nM] | IC50 (MV4-11 cells) [nM]
CC(=O)N1c2ccc(-c3ccc(C4(O)COC4)cc3)cc2N(C(=O)C2CC2)C[C@@H]1C [Example I-443] | 100 to 1000 | < 50 | 100 to 500
CC(=O)N1c2ccc(-c3ccc(CS(N)(=O)=O)cc3)cc2N(C(=O)C2CC2)C[C@@H]1C [Example I-445] | 100 to 1000 | 50 to 500 | 100 to 500
CC(=O)N1c2ccc(-c3ccc(S(=O)(=O)CCN)cc3)cc2N(C(=O)C2CC2)C[C@@H]1C [Example I-447] | 1000 to 10000 | 50 to 500 | > 500
CC(=O)N1c2ccc(-c3ccc(S(=O)(=O)CCO)cc3)cc2N(C(=O)C2CC2)C[C@@H]1C [Example I-449] | 100 to 1000 | 50 to 500 | > 500
COC(=O)N1c2ccc(-c3ccc(N4CCS(=O)(=O)CC4)cc3)cc2N(C(=O)C2CC2)C[C@@H]1C [Example I-455] | 100 to 1000 | 50 to 500 | 100 to 500
COC(=O)N1c2ccc(-c3ccc(C(=O)N4CCNCC4)cc3)cc2N(C(=O)C2CC2)C[C@@H]1C [Example I-456] | 100 to 1000 | 50 to 500 | 100 to 500
CC(=O)N1c2ccc(-c3cn(C)nn3)cc2N(C(=O)OC(C)C)C[C@@H]1C [Example I-465] | 100 to 1000 | 50 to 500 | 100 to 500
CC(=O)N1c2ccc(-c3ccc(N4CCS(=O)(=O)CC4)cc3)cc2N(C(=O)OC(C)C)C[C@@H]1C [Example I-467] | 100 to 1000 | 50 to 500 | 100 to 500
CC(C)OC(=O)N1C[C@H](C)N(C(=O)C2CC2)c2ccc(-c3ccc(N4CCS(=O)(=O)CC4)cc3)cc21 [Example I-468] | 100 to 1000 | 50 to 500 | 100 to 500
CC(=O)N1c2ccc(-c3ccc(N4CCCS4(=O)=O)cc3)cc2N(C(=O)OC(C)C)C[C@@H]1C [Example I-469] | 100 to 1000 | 50 to 500 | 100 to 500
CC(C)OC(=O)N1C[C@H](C)N(C(=O)C2CC2)c2ccc(-c3ccc(N4CCCS4(=O)=O)cc3)cc21 [Example I-470] | 100 to 1000 | > 500 | > 500
CC(=O)N1c2ccc(-c3cnc(N)cn3)cc2N(C(=O)OC(C)C)C[C@@H]1C [Example I-471] | 100 to 1000 | 50 to 500 | 100 to 500
CC(C)OC(=O)N1C[C@H](C)N(C(=O)C2CC2)c2ccc(-c3cnc(N)cn3)cc21 [Example I-472] | 100 to 1000 | > 500 | > 500
CC(=O)N1c2ccc(-c3ccc(C4(O)COC4)cc3)cc2N(C(=O)OC(C)C)C[C@@H]1C [Example I-473] | 100 to 1000 | 50 to 500 | 100 to 500
CC(C)OC(=O)N1C[C@H](C)N(C(=O)C2CC2)c2ccc(-c3ccc(C4(O)COC4)cc3)cc21 [Example I-474] | 100 to 1000 | 50 to 500 | > 500
CC(=O)N1c2ccc(-c3ccc(CS(N)(=O)=O)cc3)cc2N(C(=O)OC(C)C)C[C@@H]1C [Example I-475] | 100 to 1000 | 50 to 500 | 100 to 500

More lines, now with the values ahead:

IC50 (BRD4 BD1) [nM] | IC50 (BRD4 BD2) [nM] | IC50 (MV4-11 cells) [nM] | SMILES
100 to 1000 | 50 to 500 | 100 to 500 | COC(=O)N1c2ccc(-c3cnn(C4CCNCC4)c3)cc2N(C(=O)OC(C)C)C[C@@H]1C [Example I-355]
100 to 1000 | < 50 | 100 to 500 | CC(=O)N1c2ccc(-c3cnn(C4CNC4)c3)cc2N(C(=O)OC(C)C)C[C@@H]1C [Example I-356]
< 100 | < 50 | 100 to 500 | CC(=O)N1c2ccc(-c3cnn(C4CNC4)c3)cc2N(C(=O)C2CC2)C[C@@H]1C [Example I-360]
100 to 1000 | < 50 | 100 to 500 | C[C@H]1CN(C(=O)c2ccco2)c2cc(-c3ccc(S(C)(=O)=O)cc3)ccc2N1C(=O)C1CC1 [Example I-364]
100 to 1000 | 50 to 500 | 100 to 500 | C[C@H]1CN(C(=O)C2CC2)c2cc(-c3cnn(C4CC4)c3)ccc2N1C(=O)C1CC1 [Example I-377]
100 to 1000 | 50 to 500 | 100 to 500 | CC(C)OC(=O)N1C[C@H](C)N(C(=O)C2CC2)c2ccc(-c3cnn(C4CC4)c3)cc21 [Example I-378]
100 to 1000 | 50 to 500 | 100 to 500 | CCOC(=O)N1C[C@H](C)N(C(=O)C2CC2)c2ccc(-c3cnn(C4CC4)c3)cc21 [Example I-379]
100 to 1000 | 50 to 500 | 100 to 500 | CC(=O)N1c2ccc(-c3ccc4nccn4n3)cc2N(C(=O)c2ccco2)C[C@@H]1C [Example I-398]
100 to 1000 | < 50 | < 100 | CC(=O)N1c2ccc(-c3cnn(Cc4ccccc4)c3)cc2N(C(=O)c2ccco2)C[C@@H]1C [Example I-409]
100 to 1000 | < 50 | 100 to 500 | CC(=O)N1c2ccc(-c3cn(S(=O)(=O)N(C)C)cn3)cc2N(C(=O)c2ccco2)C[C@@H]1C [Example I-410]
100 to 1000 | < 50 | 100 to 500 | CC(=O)N1c2ccc(-c3ccc(C4(O)COC4)cc3)cc2N(C(=O)c2ccco2)C[C@@H]1C [Example I-415]
100 to 1000 | < 50 | < 100 | CC(=O)N1c2ccc(-c3ccc(N4CCS(=O)(=O)CC4)cc3)cc2N(C(=O)c2ccco2)C[C@@H]1C [Example I-417]
100 to 1000 | < 50 | 100 to 500 | CC(=O)N1c2ccc(-c3ccc(C(=O)N4CCNCC4)cc3)cc2N(C(=O)c2ccco2)C[C@@H]1C [Example I-422]
100 to 1000 | < 50 | 100 to 500 | CC(=O)N1c2ccc(-c3ccc(S(=O)(=O)CCN)cc3)cc2N(C(=O)c2ccco2)C[C@@H]1C [Example I-425]
100 to 1000 | < 50 | 100 to 500 | CC(=O)N1c2ccc(-c3ccc(CN4CCCS4(=O)=O)cc3)cc2N(C(=O)c2ccco2)C[C@@H]1C [Example I-427]
100 to 1000 | 50 to 500 | 100 to 500 | CC(=O)N1c2ccc(-c3ccc(OCCC#N)cc3)cc2N(C(=O)c2ccco2)C[C@@H]1C [Example I-428]
100 to 1000 | < 50 | 100 to 500 | CC(=O)N1c2ccc(-c3ccc(-c4ncc[nH]4)cc3)cc2N(C(=O)c2ccco2)CC1C (stereo not drawn) [Example I-429]
100 to 1000 | < 50 | 100 to 500 | CC(=O)N1c2ccc(-c3ccc(N4CCS(=O)(=O)CC4)cc3)cc2N(C(=O)C2CC2)C[C@@H]1C [Example I-435]
